Laboratory results taken from PubChem BioAssay AID248 (DTP/NCI, 2004).
Several values for one entry are separate records, joined by “and”; a condition that tells them apart may be missing. Equal values may be shown once. Toxic doses and inconclusive results are not listed.

Test system: L1210 leukemia ip in BDF1 mice, survival T/C
Experiment: NCI In Vivo Anticancer Drug Screen. Data for tumor model L1210 Leukemia (intraperitoneal) in B6D2F1 (BDF1) mice
Conditions: endpoint: mean survival time, higher = longer survival
How it was run: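 Transplantable tumor model; survival measured in treated vs vehicle control mice. Value = treated/control.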

[1] = dose: 75.0 mg/kg/injection, schedule: Q01DX009 (ip), vehicle: Klucel (hydroxypropylcellulose) (HPC)
[2] = dose: 150.0 mg/kg/injection, schedule: Q01DX009 (ip), vehicle: Klucel (hydroxypropylcellulose) (HPC)
[3] = dose: 100.0 mg/kg/injection, schedule: Q04DX003 (ip), vehicle: saline with Tween-80
[4] = dose: 200.0 mg/kg/injection, schedule: Q04DX003 (ip), vehicle: saline with Tween-80
[5] = dose: 400.0 mg/kg/injection, schedule: Q04DX003 (ip), vehicle: saline with Tween-80
[6] = dose: 100.0 mg/kg/injection, schedule: Q01DX001 (ip), vehicle: Klucel (hydroxypropylcellulose) (HPC)
[7] = dose: 400.0 mg/kg/injection, schedule: Q01DX001 (ip), vehicle: Klucel (hydroxypropylcellulose) (HPC)
[8] = dose: 100.0 mg/kg/injection, schedule: Q04DX003 (ip), vehicle: Klucel (hydroxypropylcellulose) (HPC)
[9] = dose: 200.0 mg/kg/injection, schedule: Q04DX003 (ip), vehicle: Klucel (hydroxypropylcellulose) (HPC)
[10] = dose: 400.0 mg/kg/injection, schedule: Q04DX003 (ip), vehicle: Klucel (hydroxypropylcellulose) (HPC)
[11] = dose: 100.0 mg/kg/injection, schedule: Q04DX002 (ip), vehicle: Klucel (hydroxypropylcellulose) (HPC)
[12] = dose: 200.0 mg/kg/injection, schedule: Q04DX002 (ip), vehicle: Klucel (hydroxypropylcellulose) (HPC)
[13] = dose: 400.0 mg/kg/injection, schedule: Q04DX002 (ip), vehicle: Klucel (hydroxypropylcellulose) (HPC)

c1ccc(C(=C2CCC2)c2c3ccccc3cc3ccccc23)cc1
T/C (dose: 40.0 mg/kg/injection, schedule: Q01DX009 (ip), vehicle: Klucel (hydroxypropylcellulose) (HPC)): 99 % of control
T/C (dose: 75.0 mg/kg/injection, schedule: Q01DX001 (ip), vehicle: Klucel (hydroxypropylcellulose) (HPC)): 93 % of control
T/C [1]: 107 % of control
T/C (dose: 150.0 mg/kg/injection, schedule: Q01DX001 (ip), vehicle: Klucel (hydroxypropylcellulose) (HPC)): 90 % of control
T/C [2]: 99 % of control

O[C@@H]1CCCC[C@@H]1n1cnc2c(=S)nc[nH]c21
T/C (dose: 100.0 mg/kg/injection, schedule: Q01DX009 (ip), vehicle: saline with Tween-80): 97 % of control
T/C [3]: 98 % of control
T/C (dose: 200.0 mg/kg/injection, schedule: Q01DX009 (ip), vehicle: saline with Tween-80): 93 % of control
T/C [4]: 93 % of control
T/C (dose: 400.0 mg/kg/injection, schedule: Q01DX009 (ip), vehicle: saline with Tween-80): 92 % of control
T/C [5]: 91 % of control

COc1ccc2c3c(c4cc(OC)c(OC)cc4c2c1)C[C@H]1CCCCN1C3
T/C (dose: 0.06 mg/kg/injection, schedule: Q01DX Z (ip), vehicle: carboxymethylcellulose (CMC)): 103 % of control
T/C (dose: 0.12 mg/kg/injection, schedule: Q01DX Z (ip), vehicle: carboxymethylcellulose (CMC)): 108 % of control
T/C (dose: 0.25 mg/kg/injection, schedule: Q01DX Z (ip), vehicle: carboxymethylcellulose (CMC)): 105 % of control
T/C (dose: 0.25 mg/kg/injection, schedule: Q01DX Z (ip), vehicle: other): 116 % of control
T/C (dose: 0.5 mg/kg/injection, schedule: Q01DX Z (ip), vehicle: carboxymethylcellulose (CMC)): 114 % of control and 124 % of control
T/C (dose: 0.5 mg/kg/injection, schedule: Q01DX Z (ip), vehicle: other): 123 % of control
T/C (dose: 0.5 mg/kg/injection, schedule: Q01DX Z (ip), vehicle: saline): 115 % of control
T/C (dose: 1.0 mg/kg/injection, schedule: Q01DX001 (ip), vehicle: saline): 105 % of control
T/C (dose: 1.0 mg/kg/injection, schedule: Q01DX Z (ip), vehicle: carboxymethylcellulose (CMC)): 122 % of control
T/C (dose: 1.0 mg/kg/injection, schedule: Q01DX Z (ip), vehicle: saline): 115 % of control
T/C (dose: 2.0 mg/kg/injection, schedule: Q01DX001 (ip), vehicle: saline): 105 % of control
T/C (dose: 2.0 mg/kg/injection, schedule: Q01DX Z (ip), vehicle: other): 88 % of control
T/C (dose: 4.0 mg/kg/injection, schedule: Q01DX001 (ip), vehicle: saline): 111 % of control

CC(C)(COS(C)(=O)=O)COS(C)(=O)=O
T/C (dose: 50.0 mg/kg/injection, schedule: Q01DX001 (ip), vehicle: Klucel (hydroxypropylcellulose) (HPC)): 95 % of control
T/C [6]: 93 % of control
T/C (dose: 200.0 mg/kg/injection, schedule: Q01DX001 (ip), vehicle: Klucel (hydroxypropylcellulose) (HPC)): 93 % of control
T/C [7]: 101 % of control

O=C(CCc1ccc(C(=O)Nc2ccc(C3=NCCN3)cc2)cc1)Nc1ccc(C2=NCCN2)cc1
T/C (dose: 1.87 mg/kg/injection, schedule: Q01DX Z (ip), vehicle: carboxymethylcellulose (CMC)): 101 % of control
T/C (dose: 3.75 mg/kg/injection, schedule: Q01DX Z (ip), vehicle: carboxymethylcellulose (CMC)): 103 % of control
T/C (dose: 7.5 mg/kg/injection, schedule: Q01DX Z (ip), vehicle: carboxymethylcellulose (CMC)): 99 % of control
T/C (dose: 15.0 mg/kg/injection, schedule: Q01DX Z (ip), vehicle: carboxymethylcellulose (CMC)): 235 % of control
T/C (dose: 30.0 mg/kg/injection, schedule: Q01DX Z (ip), vehicle: carboxymethylcellulose (CMC)): 223 % of control and 295 % of control
T/C (dose: 60.0 mg/kg/injection, schedule: Q01DX Z (ip), vehicle: carboxymethylcellulose (CMC)): 239 % of control and 262 % of control

CCCCNC(=O)/C=C/C(=O)NCCCC
T/C [3]: 100 % of control
T/C [4]: 100 % of control
T/C [5]: 100 % of control

CCCCCCCCCCCCN=C(N)C(N)=NCCCCCCCCCCCC
T/C (dose: 100.0 mg/kg/injection, schedule: Q04DX002 (ip), vehicle: other): 108 % of control
T/C (dose: 200.0 mg/kg/injection, schedule: Q04DX002 (ip), vehicle: other): 96 % of control
T/C (dose: 400.0 mg/kg/injection, schedule: Q04DX002 (ip), vehicle: other): 87 % of control

[NH-]C(Cc1ccccc1)C(=O)O.[NH-]C(Cc1ccccc1)C(=O)O.[Ni+2] (stereo not given)
T/C (dose: 12.5 mg/kg/injection, schedule: Q04DX003 (ip), vehicle: saline): 95 % of control
T/C (dose: 25.0 mg/kg/injection, schedule: Q04DX003 (ip), vehicle: saline): 95 % of control
T/C (dose: 50.0 mg/kg/injection, schedule: Q04DX003 (ip), vehicle: saline): 98 % of control

COc1ccc(N=Cc2c(O)ccc3ccccc23)cc1
T/C [8]: 107 % of control
T/C [9]: 98 % of control
T/C [10]: 102 % of control

COc1cccc(C)c1[N+](=O)[O-]
T/C [8]: 94 % of control
T/C [9]: 97 % of control
T/C [10]: 105 % of control

Fc1c(F)c(F)c(Oc2c(F)c(F)[c]([Sn]([c]3c(F)c(F)c(Oc4c(F)c(F)c(F)c(F)c4F)c(F)c3F)([c]3c(F)c(F)c(Oc4c(F)c(F)c(F)c(F)c4F)c(F)c3F)[c]3c(F)c(F)c(Oc4c(F)c(F)c(F)c(F)c4F)c(F)c3F)c(F)c2F)c(F)c1F
T/C (dose: 100.0 mg/kg/injection, schedule: Q01DX009 (ip), vehicle: Klucel (hydroxypropylcellulose) (HPC)): 104 % of control
T/C [8]: 103 % of control
T/C (dose: 200.0 mg/kg/injection, schedule: Q01DX009 (ip), vehicle: Klucel (hydroxypropylcellulose) (HPC)): 105 % of control
T/C [9]: 102 % of control
T/C (dose: 400.0 mg/kg/injection, schedule: Q01DX009 (ip), vehicle: Klucel (hydroxypropylcellulose) (HPC)): 104 % of control
T/C [10]: 102 % of control

O=C1c2ccccc2-c2c(N=Cc3ccc([N+](=O)[O-])cc3)cccc21
T/C [8]: 102 % of control
T/C [9]: 89 % of control
T/C [10]: 96 % of control

O=c1c(Br)c(Cl)nc2ccccn12
T/C (dose: 100.0 mg/kg/injection, schedule: Q01DX001 (ip), vehicle: saline): 95 % of control
T/C (dose: 200.0 mg/kg/injection, schedule: Q01DX001 (ip), vehicle: saline): 96 % of control
T/C (dose: 400.0 mg/kg/injection, schedule: Q01DX001 (ip), vehicle: saline): 93 % of control

CCCNC(=O)Nc1ccc(S(N)(=O)=O)cc1
T/C [11]: 97 % of control
T/C [12]: 97 % of control
T/C [13]: 87 % of control

CC1C(C(=O)c2ccc(-c3ccccc3)cc2)N1c1ccccc1 (stereo not given)
T/C [6]: 94 % of control
T/C [7]: 94 % of control

Cc1cccc(N2CCN(c3ccncc3N)CC2C)c1 (stereo not given)
T/C (dose: 19.0 mg/kg/injection, schedule: Q01DX009 (ip), vehicle: saline with Tween-80): 102 % of control
T/C (dose: 37.5 mg/kg/injection, schedule: Q04DX003 (ip), vehicle: saline with Tween-80): 94 % of control
T/C (dose: 38.0 mg/kg/injection, schedule: Q01DX009 (ip), vehicle: saline with Tween-80): 91 % of control
T/C (dose: 75.0 mg/kg/injection, schedule: Q01DX009 (ip), vehicle: saline with Tween-80): 89 % of control
T/C (dose: 75.0 mg/kg/injection, schedule: Q04DX003 (ip), vehicle: saline with Tween-80): 94 % of control

O=C(OC1(c2ccccc2)OC(=O)c2ccccc21)c1ccccc1C(=O)c1ccccc1 (stereo not given)
T/C [3]: 92 % of control
T/C [4]: 91 % of control

CC1CCCCC1C(=O)N1CCCCCC1 (stereo not given)
T/C (dose: 100.0 mg/kg/injection, schedule: Q04DX002 (ip), vehicle: saline): 108 % of control
T/C (dose: 200.0 mg/kg/injection, schedule: Q04DX002 (ip), vehicle: saline): 99 % of control
T/C (dose: 400.0 mg/kg/injection, schedule: Q04DX002 (ip), vehicle: saline): 108 % of control

CC(C)(C)S(=O)(=O)CCCl
T/C [1]: 93 % of control
T/C (dose: 100.0 mg/kg/injection, schedule: Q01DX005 (ip), vehicle: Klucel (hydroxypropylcellulose) (HPC)): 96 % of control
T/C [11]: 88 % of control
T/C [2]: 93 % of control
T/C (dose: 200.0 mg/kg/injection, schedule: Q01DX005 (ip), vehicle: Klucel (hydroxypropylcellulose) (HPC)): 100 % of control
T/C [12]: 100 % of control
T/C (dose: 300.0 mg/kg/injection, schedule: Q01DX009 (ip), vehicle: Klucel (hydroxypropylcellulose) (HPC)): 96 % of control
T/C (dose: 400.0 mg/kg/injection, schedule: Q01DX005 (ip), vehicle: Klucel (hydroxypropylcellulose) (HPC)): 100 % of control
T/C [13]: 100 % of control
